From patent US11453677B2 (priority 2016, dated 2022)

Columns and labels:
Assay in all cases: cells
Assay type in all cases: cell-based
[1] = system: influenza A virus minigenome (PB2, PB1, PA, NP) RNP_Alaska in 293T cells; conditions: HEK-293T, 48 h, read-out: RNP_Alaska EC50
[2] = system: influenza A virus minigenome (PB2, PB1, PA, NP) RNP_CAL in 293T cells; conditions: HEK-293T, 48 h, read-out: RNP_CAL_EC50
[3] = system: influenza virus minigenome (PB2, PB1, PA, NP) RNP_Hubei in 293T cells; conditions: unidentified influenza virus, HEK-293T, 48 h, read-out: RNP_Hubei EC50

Structure (SMILES)	EC50 [1] [nM]	EC50 [2] [nM]	EC50 [3] [nM]
O=c1cnn2c(c1O)-c1nccn1CC2C(c1ccccc1)c1ccccc1 (stereo not shown) [Example 1, 6-Benzhydryl-11-hydroxy-5H-imidazo[2′,1′:3,4]pyrazino[1,2-b]pyridazin-10(6H)-one]	130	110	110
O=c1cnn2c(c1O)-c1nccn1CC2C(c1cccc(F)c1)c1cccc(F)c1 (stereo not shown) [Example 2, 6-(bis(3-fluorophenyl)methyl)-11-hydroxy-5,6-dihydro-10H-imidazo[2′,1′:3,4]pyrazino[1,2-b]pyridazin-10-one]	110	110	90
O=c1cnn2c(c1O)-c1ncnn1CC2C(c1ccccc1)c1ccccc1 (stereo not shown) [Example 3, 6-benzhydryl-11-hydroxy-5,6-dihydro-10H-[1,2,4]triazolo[5′,1′:3,4]pyrazino[1,2-b]pyridazin-10-one]	1400	1100	790
O=c1ccn2c(c1O)-c1nccn1C[C@@H]2C(c1ccccc1)c1ccccc1 [Example 4, (S)-6-Benzhydryl-11-hydroxy-5H-imidazo[1,2-a]pyrido[2,1-c]pyrazin-10(6H)-one]	180	160	90
O=c1ccn2c(c1O)-c1ncc(Cl)n1C[C@@H]2C(c1ccccc1)c1ccccc1 [Example 5, (S)-6-Benzhydryl-3-chloro-11-hydroxy-5,6-dihydro-10H-imidazo[1,2-a]pyrido[2,1-c]pyrazin-10-one]	220	100	180
O=c1ccn2c(c1O)-c1nccn1CN2C(c1ccccc1)c1ccccc1 [Example 6, 6-benzhydryl-11-hydroxy-5H-imidazo[1,2-d]pyrido[2,1-f][1,2,4]triazin-10(6H)-one]	150	190	100
O=c1ccn2c(c1O)-c1ncc(Br)n1C[C@@H]2C(c1ccccc1)c1ccccc1 [Example 7, (S)-6-benzhydryl-3-bromo-11-hydroxy-5H-imidazo[1,2-a]pyrido[2,1-c]pyrazin-10(6H)-one]	140	170	160
O=c1ccn2c(c1O)-c1ncc(C3CC3)n1C[C@@H]2C(c1ccccc1)c1ccccc1 [Example 8, (S)-6-benzhydryl-3-cyclopropyl-11-hydroxy-5H-imidazo[1,2-a]pyrido[2,1-c]pyrazin-10(6H)-one]	490	150	530
CCc1cnc2n1C[C@H](C(c1ccccc1)c1ccccc1)n1ccc(=O)c(O)c1-2 [Example 9, (S)-6-benzhydryl-3-ethyl-11-hydroxy-5H-imidazo[1,2-a]pyrido[2,1-c]pyrazin-10(6H)-one]	850	580	590
O=c1cnn2c(c1O)-c1nccn1CC2C(c1ccc(Cl)cc1)c1ccc(Cl)cc1 (stereo not shown) [Example 10, 6-(bis(4-chlorophenyl)methyl)-11-hydroxy-5H-imidazo[2′,1′:3,4]pyrazino[1,2-b]pyridazin-10(6H)-one]	290	320	820
O=c1cnn2c(c1O)-c1nccn1CC2C(c1cccc(Cl)c1)c1cccc(Cl)c1 (stereo not shown) [Example 11, 6-(bis(3-chlorophenyl)methyl)-11-hydroxy-5H-imidazo[2′,1′:3,4]pyrazino[1,2-b]pyridazin-10(6H)-one]	160	80	90
O=c1cnn2c(c1O)-c1nccn1CC2C(c1ccc(F)cc1)c1ccc(F)cc1 (stereo not shown) [Example 12, 6-(bis(4-fluorophenyl)methyl)-11-hydroxy-5H-imidazo[2′,1′:3,4]pyrazino[1,2-b]pyridazin-10(6H)-one]	70	800	60
Cc1cnc2n1C[C@H](C(c1ccccc1)c1ccccc1)n1ccc(=O)c(O)c1-2 [Example 13, (S)-6-benzhydryl-11-hydroxy-3-methyl-5H-imidazo[1,2-a]pyrido[2,1-c]pyrazin-10(6H)-one]	570	310	300
Cc1nc2n(c1C)C[C@H](C(c1ccccc1)c1ccccc1)n1ccc(=O)c(O)c1-2 [Example 14, (S)-6-benzhydryl-11-hydroxy-2,3-dimethyl-5H-imidazo[1,2-a]pyrido[2,1-c]pyrazin-10(6H)-one]	6700	4200	5500
O=c1cnn2c(c1O)-c1nccn1C[C@@H]2C(c1cccc(Cl)c1)c1cccc(Cl)c1 [Example 15, (S)-6-(bis(3-chlorophenyl)methyl)-11-hydroxy-5H-imidazo [2′,1′:3,4] pyrazino [1,2-b]pyridazin-10(6H)-one]	40	25	19
O=c1cnn2c(c1O)-c1nccn1C[C@H]2C(c1cccc(Cl)c1)c1cccc(Cl)c1 [Example 16, (R)-6-(bis(3-chlorophenyl)methyl)-11-hydroxy-5H-imidazo[2′,1′:3,4] pyrazino [1,2-b]pyridazin-10(6H)-one]	960	820	950
O=c1cnn2c(c1O)-c1nccn1C[C@@H]2[C@H](c1ccccc1)c1ccc(F)cc1 [Example 17, (S)-6-((R)-(4-fluorophenyl)(phenyl)methyl)-11-hydroxy-5,6-dihydro-10H-imidazo[2′,1′:3,4]pyrazino[1,2-b]pyridazin-10-one]	30	10	70
O=c1cnn2c(c1O)-c1nccn1C[C@@H]2[C@@H](c1ccccc1)c1ccc(F)cc1 [Example 18, (S)-6-((S)-(4-fluorophenyl)(phenyl)methyl)-11-hydroxy-5,6-dihydro-10H-imidazo[2′,1′:3,4]pyrazino[1,2-b]pyridazin-10-one]	130	130	160
O=c1cnn2c(c1O)-c1nccn1C[C@@H]2[C@H](c1ccc(F)cc1)c1cncc(F)c1 [Example 19, (S)-6-((R)-(4-fluorophenyl)(5-fluoropyridin-3-yl)methyl)-11-hydroxy-5,6-dihydro-10H-imidazo[2′,1′:3,4]pyrazino[1,2-b]pyridazin-10-one]	230	260	490
O=c1cnn2c(c1O)-c1nccn1C[C@@H]2[C@H](c1ccc(F)cc1)c1ccc(C(F)(F)F)nc1 [Example 20, (S)-6-((R)-(4-fluorophenyl)(6-(trifluoromethyl)pyridin-3-yl)methyl)-11-hydroxy-5,6-dihydro-10H-imidazo[2′,1′:3,4]pyrazino[1,2-b]pyridazin-10-one]	690	720	740
O=c1cnn2c(c1O)-c1nccn1C[C@@H]2[C@@H](c1ccc(F)cc1)c1cccc(C(F)(F)F)c1 [Example 21, (S)-6-((S)-(4-fluorophenyl)(3-(trifluoromethyl)phenyl)methyl)-11-hydroxy-5,6-dihydro-10H-imidazo[2′,1′:3,4]pyrazino[1,2-b]pyridazin-10-one]	71	52	110
O=c1cnn2c(c1O)-c1nccn1C[C@@H]2C(c1ccc(F)cc1)c1ccc(F)cc1 [Example 22, (S)-6-(bis(4-fluorophenyl)methyl)-11-hydroxy-5,6-dihydro-10H-imidazo[2′,1′:3,4]pyrazino[1,2-b]pyridazin-10-one]	27	82	10
O=c1cnn2c(c1O)-c1nccn1C[C@@H]2C(c1cccc(F)c1)c1cccc(F)c1 [Example 23, (S)-6-(bis(3-fluorophenyl)methyl)-11-hydroxy-5,6-dihydro-10H-imidazo[2′,1′:3,4]pyrazino[1,2-b]pyridazin-10-one]	23	39	36
O=c1cnn2c(c1O)-c1nccn1C[C@@H]2[C@@H](c1ccc(F)cc1)c1cccc(F)c1 [Example 24, (S)-6-((S)-(3-fluorophenyl)(4-fluorophenyl)methyl)-11-hydroxy-5,6-dihydro-10H-imidazo[2′,1′:3,4]pyrazino[1,2-b]pyridazin-10-one]	52	36	59
O=c1cnn2c(c1O)-c1nccn1C[C@@H]2[C@@H](c1ccc(F)cc1)c1ccc(F)c(F)c1 [Example 25, (S)-6-((S)-(3,4-difluorophenyl)(4-fluorophenyl)methyl)-11-hydroxy-5H-imidazo[2′,1′:3,4]pyrazino[1,2-b]pyridazin-10(6H)-one]	62	56	100
O=c1cnn2c(c1O)-c1nccn1C[C@@H]2[C@H](c1ccc(F)cc1)c1cccc(F)c1 [Example 26, (S)-6-((R)-(3-fluorophenyl)(4-fluorophenyl)methyl)-11-hydroxy-5,6-dihydro-10H-imidazo[2′,1′:3,4]pyrazino[1,2-b]pyridazin-10-one]	27	38	51
Cc1cc(F)ccc1[C@H](c1ccc(F)cc1)[C@H]1Cn2ccnc2-c2c(O)c(=O)cnn21 [Example 27, (S)-6-((S)-(4-fluoro-2-methylphenyl)(4-fluorophenyl)methyl)-11-hydroxy-5,6-dihydro-10H-imidazo[2′,1′:3,4]pyrazino[1,2-b]pyridazin-10-one]	50	50	27
O=c1ccn2c(c1O)-c1nccn1C(C1CC1)N2C(c1ccccc1)c1ccccc1 (stereo not shown) [Example 73, 6-benzhydryl-5-cyclopropyl-11-hydroxy-5,6-dihydro-10H-imidazo[1,2-d]pyrido[2,1-f][1,2,4]triazin-10-one]	390	170	–
O=c1ccn2c(c1O)-c1ncsc1CN2C(c1ccccc1)c1ccccc1 [Example 81, 5-benzhydryl-10-hydroxy-4,5-dihydro-9H-pyrido[1,2-b]thiazolo[4,5-d]pyridazin-9-one]	2200	7000	–
